In patent US12679878B2, “CRF2 receptor agonists and their use in therapy” (SANOFI, priority 2020, dated 2026):
Like-named read-outs stand apart in the source and are kept apart here. Starred links: 1 amine or outer side, 2 acyl side, 3 side chain; linkers in the order of their positions; H or OH if unused. Non-standard residues stand in square brackets, D forms with d. Residues, ends and D or L forms follow the SMILES beside them. Groups on a side chain read outwards from the residue. *: point of attachment. C16 diacid = O=C(O)CCCCCCCCCCCCCCC(=O)*; γGlu = O=C(O)[C@H](CCC(=O)[*:2])N[*:1]; Palmitoyl = CCCCCCCCCCCCCCCC(=O)*; AEEA = NCCOCCOCC(=O)O; Aib = CC(C)(N)C(=O)O

How the values were obtained:
human CRF2α receptor = target: T1, human CRF2α receptor (Homo sapiens, UniProt Q13324); assay: cAMP agonism at human CRF2α receptor in TeloHEAC cells, FA modified peptides (Example 19.9); type: cell-based; settings: 0% HSA, relative to urocortin 2
T1 construct: expressed in transfected cells; host or cells: TeloHEAC
T1 sequence (Q13324 1-411): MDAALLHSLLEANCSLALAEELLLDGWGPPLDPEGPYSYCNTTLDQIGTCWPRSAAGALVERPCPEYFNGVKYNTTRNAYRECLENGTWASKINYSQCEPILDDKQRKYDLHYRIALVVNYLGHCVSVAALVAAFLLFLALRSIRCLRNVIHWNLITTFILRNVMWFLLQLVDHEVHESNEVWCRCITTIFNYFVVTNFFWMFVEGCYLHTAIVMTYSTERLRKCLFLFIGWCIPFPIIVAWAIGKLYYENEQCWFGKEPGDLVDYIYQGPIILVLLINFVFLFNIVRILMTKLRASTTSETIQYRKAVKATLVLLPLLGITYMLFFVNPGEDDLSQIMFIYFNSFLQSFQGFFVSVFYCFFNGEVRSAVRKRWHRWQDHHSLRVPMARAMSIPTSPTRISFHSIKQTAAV
Description: Agonism of compounds for human corticotropin-releasing factor 2α (CRF2α receptor) was determined by a functional assay measuring cAMP modulation upon treatment of TeloHEAC cells stably expressing human CRF2α receptor.
Compounds were dissolved at 0.5 mM in 100% DMSO and serially diluted (1:2) in 100% DMSO for 16 dilutions. 20 nL of each dilution was then transferred to 384-well assay plate using an acoustic droplet ejection instrument. 5 μL of compound buffer (1×HBSS; 20 mM HEPES, 2 mM IBMX, 0% or 0.2% HSA) were then added to each well.
Prior to use, frozen cells were thawed quickly at 37° C. and washed (5 min at 900 rpm) with 20 mL cell buffer (1×HBSS; 20 mM HEPES). Cells were resuspended in cell buffer and adjusted to a cell density of 800.000 cells/ml.
5 μL cells (final dell density: 4000 cells/well) were dispensed in the compound-containing 384-well assay plate and incubated for 30 minutes 37° C.
The CAMP level in treated cells was determined using the Cisbio 62AM4PEC kit according to manufacturer's instruction. Finally, plates were incubated for 1 h at room temperature before measuring the fluorescence ratio between 665/620 nm.
The percent activity value (E %) was calculated by setting 100 nM of urocortin 2 (UCN2) as 100%. The in vitro potency of the compounds was quantified by determining the concentrations that caused 50% activation of maximal response (EC50) relative to urocortin 2.

CRF1R receptor = target: T2, CRF1R receptor (Homo sapiens, UniProt P34998); assay: cAMP activity at anti-target CRF1R, CHO-K1 cell line clone 2 (Example 19.10); type: cell-based; settings: for Emax: 100% = Sauvagine at 100 nM; for CRF1/CRF2 ratio: ratio of CRF1 EC50 to CRF2 EC50
T2 construct: host or cells: CHO-K1 clone 2
T2 sequence (P34998 24-415): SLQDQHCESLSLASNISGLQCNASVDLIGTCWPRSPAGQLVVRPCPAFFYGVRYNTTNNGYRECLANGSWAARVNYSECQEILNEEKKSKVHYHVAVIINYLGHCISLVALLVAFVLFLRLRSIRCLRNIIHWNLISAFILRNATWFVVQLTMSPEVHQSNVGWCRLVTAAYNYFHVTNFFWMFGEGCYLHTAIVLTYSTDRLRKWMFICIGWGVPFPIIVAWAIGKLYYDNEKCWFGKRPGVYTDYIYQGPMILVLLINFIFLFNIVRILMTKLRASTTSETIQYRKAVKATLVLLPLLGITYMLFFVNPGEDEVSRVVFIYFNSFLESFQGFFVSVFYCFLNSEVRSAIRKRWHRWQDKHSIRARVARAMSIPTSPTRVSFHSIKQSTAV
How it was run: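 The cAMP read-out used the same protocol as the previous assay, except that Sauvagine at 100 nM set the 100% activation control. Cells were CHO-K1 clone 2 overexpressing CRF1R, cultured in F12 medium with 10% FBS and G418 and stored frozen until use.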

[1] = 0% HSA, CRF1R CHO-K1 clone 2, read-out: EC50 [nM] 0% HSA
[2] = Table 20 side-to-side comparison, read-out: CRF1 EC50

Structure (SMILES) | EC50 (human CRF2α receptor) | EC50 (CRF1R receptor; [1]) | Emax (CRF1R receptor; CRF1R CHO-K1 clone 2) | EC50 (CRF1R receptor; [2]) | CRF1/CRF2 ratio (CRF1R receptor)
CC[C@H](C)[C@H](N)C(=O)N[C@H](C(=O)N[C@@H](CC(C)C)C(=O)N[C@@H](CO)C(=O)N[C@@H](CC(C)C)C(=O)N[C@@H](CC(=O)O)C(=O)N[C@@H](C(=O)N1CCC[C@H]1C(=O)N[C@H](C(=O)NCC(=O)N[C@@H](CC(C)C)C(=O)N[C@@H](CCCCNC(=O)CC[C@H](NC(=O)CCCCCCCCCCCCCCC(=O)O)C(=O)O)C(=O)N[C@@H](CCC(N)=O)C(=O)N[C@H](C(=O)N[C@@H](CC(C)C)C(=O)N[C@@H](CC(C)C)C(=O)N[C@@H](CCCCN)C(=O)N[C@@H](CCC(N)=O)C(=O)N[C@@H](CCC(=O)O)C(=O)N[C@@H](CCCNC(=N)N)C(=O)N[C@@H](CCC(N)=O)C(=O)N[C@@H](CCCCN)C(=O)N[C@@H](CCCCN)C(=O)NC(C)(C)C(=O)N[C@@H](CCCNC(=N)N)C(=O)N[C@@H](CCC(N)=O)C(=O)N[C@@H](CCC(N)=O)C(=O)N[C@@H](C)C(=O)N[C@@H](CCC(=O)O)C(=O)N[C@H](C(=O)N[C@@H](CC(N)=O)C(=O)N[C@@H](CCCCN)C(=O)N[C@@H](CCCNC(=N)N)C(=O)N[C@H](C(=O)N[C@@H](CC(C)C)C(=O)N[C@@H](CCC(=O)O)C(=O)N[C@@H](CCCNC(=N)N)C(=O)N[C@H](C(N)=O)C(C)C)[C@@H](C)CC)[C@@H](C)O)[C@@H](C)CC)[C@@H](C)CC)C(C)C)C(C)C [compound 195] (H-IVLSLD[dV]PIGLK([γGlu-C16 diacid])QILLKQERQKK[Aib]RQQAETNKRILERV-NH2) | 0.34 nM | > 100 nM | 17.1% | > 100 nM | >500
CC[C@H](C)[C@H](N)C(=O)N[C@H](C(=O)N[C@@H](CC(C)C)C(=O)N[C@@H](CO)C(=O)N[C@@H](CC(C)C)C(=O)N[C@@H](CC(=O)O)C(=O)N[C@@H](C(=O)N1CCC[C@H]1C(=O)N[C@H](C(=O)NCC(=O)N[C@@H](CC(C)C)C(=O)N[C@@H](CCCCNC(=O)CC[C@H](NC(=O)CCCCCCCCCCCCCCC(=O)O)C(=O)O)C(=O)N[C@@H](CCC(N)=O)C(=O)N[C@H](C(=O)N[C@@H](CC(C)C)C(=O)N[C@@H](CC(C)C)C(=O)N[C@@H](CCCCN)C(=O)N[C@@H](CCC(N)=O)C(=O)N[C@@H](CCC(=O)O)C(=O)N[C@@H](CCCNC(=N)N)C(=O)N[C@@H](CCC(N)=O)C(=O)N[C@@H](CCCCN)C(=O)N[C@@H](CCCCN)C(=O)NC(C)(C)C(=O)N[C@@H](CCCNC(=N)N)C(=O)N[C@@H](CCC(=O)O)C(=O)N[C@@H](CCC(N)=O)C(=O)N[C@@H](C)C(=O)N[C@@H](CCC(=O)O)C(=O)N[C@@H](CCCCN)C(=O)N[C@@H](CC(N)=O)C(=O)N[C@@H](CCCCN)C(=O)N[C@@H](CCCNC(=N)N)C(=O)N[C@H](C(=O)N[C@@H](CC(C)C)C(=O)N[C@@H](CCC(=O)O)C(=O)N[C@@H](CCCNC(=N)N)C(=O)N[C@H](C(N)=O)C(C)C)[C@@H](C)CC)[C@@H](C)CC)[C@@H](C)CC)C(C)C)C(C)C [compound 196] (H-IVLSLD[dV]PIGLK([γGlu-C16 diacid])QILLKQERQKK[Aib]REQAEKNKRILERV-NH2; N-terminus assumed) | 1.08 nM | > 100 nM | 16.9% | > 100 nM | >500
CCCCCCCCCCCCCCCC(=O)N[C@@H](CCC(=O)NCCCC[C@H](NC(=O)[C@H](CC(C)C)NC(=O)CNC(=O)[C@@H](NC(=O)[C@@H]1CCCN1C(=O)[C@H](NC(=O)[C@H](CC(=O)O)NC(=O)[C@H](CC(C)C)NC(=O)[C@H](CO)NC(=O)[C@H](CC(C)C)NC(=O)[C@@H](NC(=O)[C@@H](N)[C@@H](C)CC)C(C)C)C(C)C)[C@@H](C)CC)C(=O)N[C@@H](CCC(N)=O)C(=O)N[C@H](C(=O)N[C@@H](CC(C)C)C(=O)N[C@@H](CC(C)C)C(=O)N[C@@H](CCCCN)C(=O)N[C@@H](CCC(N)=O)C(=O)N[C@@H](CCC(=O)O)C(=O)N[C@@H](CCCNC(=N)N)C(=O)N[C@@H](CCC(N)=O)C(=O)N[C@@H](CCCCN)C(=O)N[C@@H](CCCCN)C(=O)NC(C)(C)C(=O)N[C@@H](CCCNC(=N)N)C(=O)N[C@@H](CCC(=O)O)C(=O)N[C@@H](CCC(N)=O)C(=O)N[C@@H](C)C(=O)N[C@@H](CCC(=O)O)C(=O)N[C@H](C(=O)N[C@@H](CC(N)=O)C(=O)N[C@@H](CCCCN)C(=O)N[C@@H](CCC(N)=O)C(=O)N[C@H](C(=O)N[C@@H](CC(C)C)C(=O)N[C@@H](C)C(=O)N[C@@H](CCC(N)=O)C(=O)N[C@H](C(N)=O)C(C)C)[C@@H](C)CC)[C@@H](C)O)[C@@H](C)CC)C(=O)O [compound 215] (H-IVLSLD[dV]PIGLK([γGlu-Palmitoyl])QILLKQERQKK[Aib]REQAETNKQILAQV-NH2; N-terminus assumed) | 0.15 nM | – | – | – | –

The remaining lines, values ahead:

EC50 (human CRF2α receptor) | EC50 (CRF1R receptor; [1]) | Emax (CRF1R receptor; CRF1R CHO-K1 clone 2) | EC50 (CRF1R receptor; [2]) | CRF1/CRF2 ratio (CRF1R receptor) | Structure (SMILES)
2.27 nM | > 100 nM | 24.4% | > 100 nM | >500 | CC[C@H](C)[C@H](N)C(=O)N[C@H](C(=O)N[C@@H](CC(C)C)C(=O)N[C@@H](CO)C(=O)N[C@@H](CC(C)C)C(=O)N[C@@H](CC(=O)O)C(=O)N[C@@H](C(=O)N1CCC[C@H]1C(=O)N[C@H](C(=O)N[C@@H](CCCCN)C(=O)N[C@@H](CC(C)C)C(=O)N[C@@H](CCCCNC(=O)CC[C@H](NC(=O)CCCCCCCCCCCCCCC(=O)O)C(=O)O)C(=O)N[C@@H](CCC(N)=O)C(=O)N[C@H](C(=O)N[C@@H](CC(C)C)C(=O)N[C@@H](CC(C)C)C(=O)N[C@@H](CCCCN)C(=O)N[C@@H](CCC(N)=O)C(=O)N[C@@H](C)C(=O)N[C@@H](CCCNC(=N)N)C(=O)N[C@@H](CCC(N)=O)C(=O)N[C@@H](CCCCN)C(=O)NC(C)(C)C(=O)N[C@@H](CCC(N)=O)C(=O)N[C@@H](CCCNC(=N)N)C(=O)N[C@@H](C)C(=O)N[C@@H](CCC(N)=O)C(=O)N[C@@H](C)C(=O)N[C@@H](CCC(=O)O)C(=O)N[C@@H](CCCCN)C(=O)N[C@@H](CC(N)=O)C(=O)N[C@@H](CCCCN)C(=O)N[C@@H](CCCNC(=N)N)C(=O)N[C@H](C(=O)N[C@@H](CC(C)C)C(=O)N[C@@H](CCC(=O)O)C(=O)N[C@@H](CCCNC(=N)N)C(=O)N[C@H](C(N)=O)C(C)C)[C@@H](C)CC)[C@@H](C)CC)[C@@H](C)CC)C(C)C)C(C)C [compound 197] (H-IVLSLD[dV]PIKLK([γGlu-C16 diacid])QILLKQARQK[Aib]QRAQAEKNKRILERV-NH2; N-terminus assumed)
0.16 nM | – | – | – | – | CCCCCCCCCCCCCCCC(=O)N[C@@H](CCC(=O)N[C@@H](CCC(=O)NCCOCCOCC(=O)NCCOCCOCC(=O)NCCCC[C@H](NC(=O)[C@H](CC(C)C)NC(=O)CNC(=O)[C@@H](NC(=O)[C@@H]1CCCN1C(=O)[C@H](NC(=O)[C@H](CC(=O)O)NC(=O)[C@H](CC(C)C)NC(=O)[C@H](CO)NC(=O)[C@H](CC(C)C)NC(=O)[C@@H](NC(=O)[C@@H](N)[C@@H](C)CC)C(C)C)C(C)C)[C@@H](C)CC)C(=O)N[C@@H](CCC(N)=O)C(=O)N[C@H](C(=O)N[C@@H](CC(C)C)C(=O)N[C@@H](CC(C)C)C(=O)N[C@@H](CCCCN)C(=O)N[C@@H](CCC(N)=O)C(=O)N[C@@H](CCC(=O)O)C(=O)N[C@@H](CCCNC(=N)N)C(=O)N[C@@H](CCC(N)=O)C(=O)N[C@@H](CCCCN)C(=O)N[C@@H](CCCCN)C(=O)NC(C)(C)C(=O)N[C@@H](CCCNC(=N)N)C(=O)N[C@@H](CCC(=O)O)C(=O)N[C@@H](CCC(N)=O)C(=O)N[C@@H](C)C(=O)N[C@@H](CCC(=O)O)C(=O)N[C@H](C(=O)N[C@@H](CC(N)=O)C(=O)N[C@@H](CCCCN)C(=O)N[C@@H](CCC(N)=O)C(=O)N[C@H](C(=O)N[C@@H](CC(C)C)C(=O)N[C@@H](C)C(=O)N[C@@H](CCC(N)=O)C(=O)N[C@H](C(N)=O)C(C)C)[C@@H](C)CC)[C@@H](C)O)[C@@H](C)CC)C(=O)O)C(=O)O [compound 217] (H-IVLSLD[dV]PIGLK([AEEA-AEEA-γGlu-γGlu-Palmitoyl])QILLKQERQKK[Aib]REQAETNKQILAQV-NH2; N-terminus assumed)
